Experimental findings from US20240269139A1, “COMPOUNDS FOR TARGETED PROTEIN DEGRADATION OF KINASES” (DANA-FARBER CANCER INSTITUTE, INC., priority 2020, published 2024) are described below.

Read-outs that look alike come from different tables or passages of the source.

Holding throughout (assay type): cell-based
Assay [1] deals with T1, protein kinases (human kinome) (Homo sapiens, UniProt P21709).
T1 sequence (P21709 26-976): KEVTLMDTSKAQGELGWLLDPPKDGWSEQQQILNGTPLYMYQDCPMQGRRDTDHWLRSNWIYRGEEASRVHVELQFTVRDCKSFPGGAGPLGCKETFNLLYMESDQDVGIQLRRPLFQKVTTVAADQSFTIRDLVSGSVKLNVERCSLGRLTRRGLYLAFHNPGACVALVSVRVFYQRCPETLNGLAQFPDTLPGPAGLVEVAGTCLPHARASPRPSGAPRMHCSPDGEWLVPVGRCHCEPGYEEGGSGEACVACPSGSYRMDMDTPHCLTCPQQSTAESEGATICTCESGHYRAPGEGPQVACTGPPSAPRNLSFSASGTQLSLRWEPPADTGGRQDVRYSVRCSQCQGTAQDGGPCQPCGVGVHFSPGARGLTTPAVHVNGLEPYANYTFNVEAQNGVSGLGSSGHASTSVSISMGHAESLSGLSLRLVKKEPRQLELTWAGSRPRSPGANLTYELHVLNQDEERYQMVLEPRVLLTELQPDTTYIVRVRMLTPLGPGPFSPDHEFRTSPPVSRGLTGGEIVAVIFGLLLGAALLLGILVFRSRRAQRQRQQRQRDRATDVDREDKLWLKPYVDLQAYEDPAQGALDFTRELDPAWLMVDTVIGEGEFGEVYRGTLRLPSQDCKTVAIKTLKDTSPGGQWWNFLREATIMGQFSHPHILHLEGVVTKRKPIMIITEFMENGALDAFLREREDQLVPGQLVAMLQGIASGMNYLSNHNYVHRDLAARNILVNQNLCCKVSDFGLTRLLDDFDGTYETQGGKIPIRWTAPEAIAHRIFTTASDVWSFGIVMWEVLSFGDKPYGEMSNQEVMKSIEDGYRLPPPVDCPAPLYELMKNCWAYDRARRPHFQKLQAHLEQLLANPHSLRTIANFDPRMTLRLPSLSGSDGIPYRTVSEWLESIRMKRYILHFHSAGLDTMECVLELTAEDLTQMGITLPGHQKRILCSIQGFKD
To be noted: for logFC of EPHA1 (P21709): Experiment wp114; for logFC EPHA1: protein EPHA1 (P21709), experiment wp114, direction of change down.

The target of assay [2] is T2, protein kinases (human kinome) (Homo sapiens, UniProt Q86YV5).
T2 sequence (Q86YV5 1-1406): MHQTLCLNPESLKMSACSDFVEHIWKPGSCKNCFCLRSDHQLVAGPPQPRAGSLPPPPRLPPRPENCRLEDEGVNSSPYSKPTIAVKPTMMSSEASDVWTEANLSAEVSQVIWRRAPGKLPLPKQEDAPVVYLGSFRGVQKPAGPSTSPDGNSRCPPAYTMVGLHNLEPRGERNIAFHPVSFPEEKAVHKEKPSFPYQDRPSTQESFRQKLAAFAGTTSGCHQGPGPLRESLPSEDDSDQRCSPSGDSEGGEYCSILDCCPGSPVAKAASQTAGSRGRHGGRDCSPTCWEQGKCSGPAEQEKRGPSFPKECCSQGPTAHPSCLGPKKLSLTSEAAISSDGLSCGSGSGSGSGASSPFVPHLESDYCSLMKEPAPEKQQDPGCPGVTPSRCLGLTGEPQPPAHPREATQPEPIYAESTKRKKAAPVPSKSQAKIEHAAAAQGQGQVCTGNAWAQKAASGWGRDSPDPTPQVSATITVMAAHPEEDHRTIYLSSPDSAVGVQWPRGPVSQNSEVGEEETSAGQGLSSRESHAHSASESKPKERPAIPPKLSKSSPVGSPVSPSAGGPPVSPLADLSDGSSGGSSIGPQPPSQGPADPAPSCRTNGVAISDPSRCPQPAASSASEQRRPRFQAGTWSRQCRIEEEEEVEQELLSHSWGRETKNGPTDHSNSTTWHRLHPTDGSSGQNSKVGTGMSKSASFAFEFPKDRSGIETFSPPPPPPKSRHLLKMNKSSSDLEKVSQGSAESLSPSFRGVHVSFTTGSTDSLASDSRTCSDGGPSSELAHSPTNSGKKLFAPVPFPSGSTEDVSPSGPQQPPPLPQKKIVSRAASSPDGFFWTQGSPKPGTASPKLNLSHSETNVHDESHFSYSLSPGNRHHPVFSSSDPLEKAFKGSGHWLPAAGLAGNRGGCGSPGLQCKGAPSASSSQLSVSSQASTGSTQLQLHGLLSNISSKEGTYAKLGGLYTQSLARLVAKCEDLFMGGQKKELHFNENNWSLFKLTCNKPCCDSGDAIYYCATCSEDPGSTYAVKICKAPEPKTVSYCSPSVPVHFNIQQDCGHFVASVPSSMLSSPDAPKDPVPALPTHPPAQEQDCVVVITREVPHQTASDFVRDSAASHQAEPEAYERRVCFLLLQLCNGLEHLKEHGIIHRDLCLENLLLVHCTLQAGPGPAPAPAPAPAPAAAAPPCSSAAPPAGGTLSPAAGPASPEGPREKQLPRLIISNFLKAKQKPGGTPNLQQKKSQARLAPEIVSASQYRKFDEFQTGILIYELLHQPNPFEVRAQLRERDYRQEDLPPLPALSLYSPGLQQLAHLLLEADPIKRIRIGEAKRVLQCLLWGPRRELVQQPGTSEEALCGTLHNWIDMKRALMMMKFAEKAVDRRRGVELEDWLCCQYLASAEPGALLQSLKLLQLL
The conditions noted are these: PRAG1 Q86YV5.

Assay [3] addresses protein kinases (human kinome) (Homo sapiens, UniProt P48730). To be noted: for logFC CSNK1D: Accession P48730-1, direction down.

Chain of protein kinases (human kinome) (Homo sapiens, UniProt P48730) (P48730 whole entry): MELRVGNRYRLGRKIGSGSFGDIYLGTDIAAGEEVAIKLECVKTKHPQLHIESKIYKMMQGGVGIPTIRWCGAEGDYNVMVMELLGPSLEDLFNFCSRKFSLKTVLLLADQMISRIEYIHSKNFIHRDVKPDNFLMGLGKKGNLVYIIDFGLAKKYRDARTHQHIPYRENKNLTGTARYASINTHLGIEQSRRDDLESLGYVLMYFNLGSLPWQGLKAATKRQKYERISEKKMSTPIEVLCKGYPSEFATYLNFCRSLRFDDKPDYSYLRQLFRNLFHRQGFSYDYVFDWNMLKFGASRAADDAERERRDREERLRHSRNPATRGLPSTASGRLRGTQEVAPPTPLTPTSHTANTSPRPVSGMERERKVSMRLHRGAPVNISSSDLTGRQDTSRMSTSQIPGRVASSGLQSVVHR

Turning to `Cc1ccc(C(=O)Nc2ccc(CN3CCN(CCCOCCOCCOCCNC(=O)COc4cccc5c4C(=O)N(C4CCC(=O)NC4=O)C5=O)CC3)c(C(F)(F)F)c2)cc1C#Cc1cnc2cccnn12` (stereo not drawn) [SB1.G.187], in assay [1], the “logFC of EPHA1 (P21709)” value is −0.3552 and the “logFC EPHA1” value is given as −0.3552.
`CC(C)S(=O)(=O)c1ccccc1Nc1nc(Nc2ccc(N3CCN(CCOCCOCCNC(=O)CNc4cccc5c4C(=O)N(C4CCC(=O)NC4=O)C5=O)CC3)cc2)ncc1Cl` (stereo not drawn) [TL12.186]: in assay [2] (experiment wp131), the logFC was −0.4243 and the “logFC PRAG1” value is given as −0.4243. For the same molecule, in assay [2] (experiment wp137), the logFC is reported as −0.3459 and the “logFC PRAG1” value is given as −0.3459. Further, in assay [3] (experiment wp131), the “logFC CSNK1D” value is on record as −0.3551 and the “logFC of CSNK1D (P48730-1)” value is given as −0.3551.
On to `Cc1ncsc1-c1ccc([C@H](C)NC(=O)[C@@H]2C[C@@H](O)CN2C(=O)[C@@H](NC(=O)CCOCCOCCN2CCN(c3ccc(Nc4ncc(Cl)c(Nc5ccccc5S(=O)(=O)C(C)C)n4)cc3)CC2)C(C)(C)C)cc1` [FMF.06.098.1], for which, in assay [1], the “logFC of EPHA1 (P21709)” value is −0.422 and the “logFC EPHA1” value is reported as −0.422.
In the case of `CC(C)S(=O)(=O)c1ccccc1Nc1nc(Nc2ccc(N3CCN(CCOCCNC(=O)CNc4cccc5c4C(=O)N(C4CCC(=O)NC4=O)C5=O)CC3)cc2)ncc1Cl` (stereo not drawn) [SK.3.91], in assay [2] (experiment wp107), the logFC is reported as −0.3692 and the “logFC PRAG1” value is −0.3692. Also, in assay [2] (experiment wp133, 2 hr), the logFC was −0.3667 and the “logFC PRAG1” value was −0.3667. In assay [2] (experiment wp133, 4 hr), the logFC is given as −0.4352 and the “logFC PRAG1” value is −0.4352. Further, in assay [3] (experiment wp133, 4 hr), the “logFC CSNK1D” value is −0.4585 and the “logFC of CSNK1D (P48730-1)” value was −0.4585.
